These are literature values, as cited in patent US5210089A, “D-rhamnono-1,5-lactone” (Monsanto Company, priority 1992, dated 1993).

The target in series [1] is T1, Lysosomal α-mannosidase (Homo sapiens, UniProt O00754).
T1 sequence (O00754 50-1011): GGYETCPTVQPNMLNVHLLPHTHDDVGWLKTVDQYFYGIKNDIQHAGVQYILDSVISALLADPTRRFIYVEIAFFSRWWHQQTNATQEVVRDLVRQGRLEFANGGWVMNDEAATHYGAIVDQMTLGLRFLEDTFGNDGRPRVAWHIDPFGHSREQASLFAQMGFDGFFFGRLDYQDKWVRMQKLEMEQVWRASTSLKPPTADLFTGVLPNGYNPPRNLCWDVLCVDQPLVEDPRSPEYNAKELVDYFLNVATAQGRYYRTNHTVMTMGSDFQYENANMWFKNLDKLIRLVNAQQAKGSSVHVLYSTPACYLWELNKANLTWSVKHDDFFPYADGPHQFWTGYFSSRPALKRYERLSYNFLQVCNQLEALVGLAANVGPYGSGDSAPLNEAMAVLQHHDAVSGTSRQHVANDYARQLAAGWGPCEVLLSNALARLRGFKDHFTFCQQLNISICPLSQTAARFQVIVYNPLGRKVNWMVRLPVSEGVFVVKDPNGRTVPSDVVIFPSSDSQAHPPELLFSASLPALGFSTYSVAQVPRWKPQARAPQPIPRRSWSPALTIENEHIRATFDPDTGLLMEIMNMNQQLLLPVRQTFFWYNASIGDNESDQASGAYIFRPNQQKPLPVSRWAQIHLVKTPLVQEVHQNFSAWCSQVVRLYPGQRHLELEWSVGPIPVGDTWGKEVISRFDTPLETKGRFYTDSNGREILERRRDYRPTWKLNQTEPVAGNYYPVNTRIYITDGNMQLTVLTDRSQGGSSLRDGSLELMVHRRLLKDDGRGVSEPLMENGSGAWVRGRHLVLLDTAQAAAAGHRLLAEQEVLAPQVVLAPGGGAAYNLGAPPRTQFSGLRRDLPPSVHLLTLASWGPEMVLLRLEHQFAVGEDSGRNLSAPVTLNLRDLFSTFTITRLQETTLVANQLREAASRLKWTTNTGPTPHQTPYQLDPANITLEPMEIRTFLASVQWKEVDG
Conditions: literature; cited from earlier work.

Series [2] has as its system rat epidodymal α-mannosidases. The note with it: literature; cited from earlier work.

SMILES strings stand for the structures.

Regarding `O=C1N[C@H](CO)[C@@H](O)[C@H](O)[C@@H]1O` [Mannono-1,5-lactam (2), D-mannonolactam], the “Inhibition of human lysosomal α-mannosidase (in words)” value in series [1] is reported as “powerful inhibitor”. The “Inhibition of rat epididymal α-mannosidase (in words)” value in series [2] is listed as “powerful inhibitor”.
